Measurements taken from patent US5215744A, “Methods for the treatment of tumors” (Boehringer Ingelheim GmbH, priority 1987, dated 1993).
“Also recorded” adds a separate entry of the source.

How the values were obtained:
[1] = tested on: KT cells; assay: DNA synthetic activity test ([^3 H]dTHD uptake into acid insoluble materials); assay type: cell-based, human; conditions: 0.1 μM dipyridamole with HuIFN-β (FIG. 8)
Source text: (§1) Four established cell lines were used. These were MM-1CB, derived from tissues of malignant melanoma (level IV, pT4 N0 M0) in a person (Jpn. J. Dermatol. 96:947 (1986)); KT, derived from metastatic brain tumor in a person (J. Rad. Res. 26:59 (1985) and The 44th Meeting of Japanese Cancer Association, 718 (1985)); PLC/PRF/5, derived from human hepatoma (Brit. J. Cancer 34:509-515 (1976)) and a transformed cell line RSa (Virology 135:20-29 (1984), and J. Natl. Cancer Inst. 56:919-926 (1976)).
[^3 H]dTHD uptake into acid insoluble materials were estimated in KT and RSa cells treated with the various agents, as described in J. Gen. Virol. 67:651-661 (1986).

[2] = tested on: human ovarian carcinoma cell line; conditions: cited from earlier work
[3] = tested on: MM-1CB cells; assay: Growth rate of established tumors in nude mice; assay type: in vivo, human tumor cells in nude mice
Method: Growth rate of tumors after the apparent tumor appeared and then were treated with agents.
the two agents combination

[4] = tested on: MM-1CB; assay: Cell proliferation inhibition test (trypan-blue exclusion), continuous exposure; assay type: cell-based, human
Source text: as §1
(§2) Cells were cultured with Eagle's minimal essential medium (EMEM) containing 10% fetal bovine serum (GIBCO, U.S.A.) and antibiotics ([…] streptomycin/ml and 100 units penicillin G/ml), in an incubator at 37° C. under 5% CO2.
(§3) Other chemical agents were purchased from the Nakarai Co., Ltd., Japan.
(§4) Changes of medium with and without agents were carried out every other day. The viable cells were determined by trypan-blue exclusion test and counted with a hemocytometer. The survival percentage ratio was expressed as (counts of viable cells in test dishes per counts of viable cells in control dishes) x 100%, as described elsewhere in, e.g., Mutation Research 106:357-376 (1982) and […]. 67:651-661 (1986).
(§5) Most of experiments were carried out under a dim light or in the dark. Results were expressed as the mean of values obtained from more than two independent experiments.

[5] = tested on: PLC/PRF/5 cells; assay: as above; assay type: cell-based, human; conditions: HuIFN and dipyridamole (FIG. 5)
Source text: as §1, §2, §3, §4, §5

[6] = tested on: KT cells; assay: as above; assay type: cell-based, human
Source text: as §1, §2, §3, §4, §5

[7] = tested on: plasminogen activator-like protease; assay: Protease activity after dipyridamole exposure (^125 I-fibrin release); assay type: cell-based, human (MM-1CB cells); conditions: dipyridamole alone; MM-1CB, 30 min (FIG. 13)
Source text: Assay methods were similar to those described elsewhere (Suzuki et al., Mutation Res. 198:207-214 (1988)). Results were expressed as the total amount of ^125 I-radioactivity released from the labelled fibrin per protein contents.

[8] = tested on: nucleoside transport through the cell membrane; conditions: cited from earlier work
[9] = tested on: DNA of MM-1CB cells; assay: Alkaline sucrose gradient assay (DNA damage); assay type: cell-based, human; conditions: 10 μM dipyridamole 24 h then 10^3 IU/ml IFNβ 24 h (FIG. 12)
Method: Cells (2×10^5), prelabelled with [^14 C]Thymidine, were seeded in 60 mm culture dishes and then cultured with and without agents. After the indicated tie cells were scraped off from the dishes and suspended in ice-cold phosphate-buffer saline solution containing 10 mM EDTA.
The cell suspensions were then exposed to 100R of X-rays in order to facilitate the unwinding and separation of DNA strands, and the solution containing SDS was applied to the cells, 2% of the final concentration of sodium dodecil sulfate (SDS).
The cell lysates were layered on alkaline solution with 5-20% sucrose gradients containing 0.1M NaOH and 0.1M NaCl. Then the gradients were immediately centrifuged at 10,000 rpm for 17 hr at 20° C. in a Hitachi RPS55T rotor.
After centrifugation, solutions were fractionated and collected onto Whatmann 17 CHROMA paper strips. Radioactivity of acid-insoluble materials on the strips were counted in toluene based scintillator. The percentage of the total dpm in each fraction was calculated taking the input dpm as 100%.
C 10^3 IU/ml IFNβ exposure for 48 hr;

[10] = tested on: explanted mouse peritoneal leukocytes and other cells; conditions: in vitro; cited from earlier work
[11] = tested on: MM-1CB cells; assay: Survival of MM-1CB cells after sequential dipyridamole / interferon β treatment; assay type: cell-based, human; conditions: vs simultaneous administration; cells cultured in dishes (FIG. 11)
Method: Experimental numbers (Exp. Nos.) 1, 2, and 3 were the results obtained under reported cell-culture-conditions. In Exp. Nos. 4 and 5, treatment with DP alone and without IFN β was done during […] of the experiment schedule, respectively. In Exp. No. 6 IFN β treatment alone, without the DP addition, was done after DP treatment alone for the first 24 hours of the experimental schedule; after the DP treatment culture medium was depleted and cells were washed three times with Eagle's minimal essential medium, followed by being cultured with medium containing IFN β.

[12] = tested on: antiviral activity in culture medium; assay: Antiviral activity (IFN production) in culture medium of treated cells; assay type: cell-based; conditions: 0.1 μM dipyridamole-treated cells
Source text: Virol. 67:651-611 (1986).

[13] = tested on: MM-1CB, KT and PLC/PRF/5 cells; assay: Anticellular action of HuIFN combined with dipyridamole (FIGS. 3-5); assay type: cell-based, human; conditions: FIGS. 3B, 4B and 5B
Method: as §4

[14] = tested on: MM-1CB cells; assay: Tumor growth in nude mice, treatment from 3 days after MM-1CB implantation; assay type: in vivo, human tumor cells in male athymic nude mice (BALB/cA JcL-nu); conditions: combination of dipyridamole and interferon, 3 days after injection, vs each agent alone (FIG. 9)
Method: Male athymic nude mice (BALB/cA JcL-nu) used were 4 week old and weighed 14 to 18 g at the beginning of the experiment. All mice were given a basal diet (FR-II, Funabashi Nojo Co., Ltd., Funabashi) ad libitum.
Control animals were treated with phosphate buffered saline.
On day 62 post tumor implantation the size of each tumor was measured by caliper (two dimensions) and the measurements were converted to an approximation of tumor weight employing the formula: (a×b^2)/2, where a and b are the length and width of tumor, respectively.

[15] = tested on: interferon effect; assay: Enhancement of interferon effect in vitro; assay type: cell-based
[16] = tested on: metastasis; conditions: cited from earlier work
[17] = tested on: DNA; conditions: dipyridamole alone; cited from earlier work
[18] = tested on: LIZIO leukemia; conditions: with MTX; cited from earlier work
[19] = tested on: interferon in mice; conditions: I.V.; cited from earlier work
[20] = tested on: SEKI-F melanoma cells; assay: Survival after continuous exposure to dipyridamole and interferon β; assay type: cell-based, human
Source text: Culture and the exposure conditions were the same as described in the previous manuscript.

Q: For OCCN(CCO)c1nc(N2CCCCC2)c2nc(N(CCO)CCO)nc(N3CCCCC3)c2n1 [dipyridamole, 2,6-bis(diethanolamine)-4,8-dipiperidino-pyrimido[5,4-d]pyrimidin], which “enhancement of HuIFN inhibitory effect on DNA synthesis” value [1] is on record?
A: remarkably enhanced

Q: And the “cytotoxicity of its own” value ([2]; dipyridamole alone)?
A: no cytotoxicity of its own

Q: What about the PALA activity ([2]; with PALA) of the same compound?
A: increased PALA activity

Q: What about the “depression of tumor growth, combination” value ([3]; two agents given after tumor reached more than about 1 cm in diameter (FIG. 10)) of the same compound?
A: not drastically effective in depressing tumor growth

Q: And the “effect of dipyridamole treatment prior to interferon” value ([3]; vs simultaneous administration (FIG. 10))?
A: more effective than a simultaneous administration of the two agents

Q: And the “effect with HuIFN-α, -β and -γ” value ([4]; 0.1 μM dipyridamole continuously, 6 days (FIG. 3A))?
A: additive effect with HuIFN-α, -β and -γ was also observed

Q: What about the “inhibition of cell growth” value ([4]; 0.1 μM dipyridamole with 10 units/ml HuIFN-β, more than 4 days (FIG. 1)) of the same compound?
A: considerable inhibition of cell growth

Q: And the “suppression of cell proliferation” value ([4]; agent alone: 10 units/ml HuIFN-β or 0.1 μM dipyridamole (FIG. 1))?
A: only slightly effective in suppressing cell proliferation

Q: What about the “lower concentration effective in enhancing the anticellular effect of HuIFN” value ([4]; with HuIFN, 6 days (FIG. 3B)) of the same compound?
A: 0.01 µM

Q: What about the “synergistic inhibitory activity, susceptibility” value [5] of the same compound?
A: high susceptibility to the synergistic inhibitory activity

Q: What about the “synergistic inhibitory activity, susceptibility” value ([6]; HuIFN and dipyridamole (FIG. 4)) of the same compound?
A: high susceptibility to the synergistic inhibitory activity

Q: What about the “inhibition of cell replication, combination” value ([6]; HuIFN-α with simultaneous dipyridamole (FIG. 4)) of the same compound?
A: inhibition of cell replication was enhanced

Q: And the “influence on KT cell replication” value ([6]; dipyridamole alone, less than 0.1 μM (FIG. 4B))?
A: scarcely influenced KT cell replication

Q: What about the “concentration that enhances the inhibitory effect of HuIFN-α” value ([6]; with HuIFN-α (FIG. 4B)) of the same compound?
A: less than 0.1 μM

Q: And the “activity of plasminogen activator-like protease” value [7]?
A: induced after a few minutes of treatment

Q: And the nucleoside transport [8]?
A: can inhibit nucleoside transport through the cell membrane

Q: And the “DNA damage under alkaline assay conditions” value [9]?
A: resulted in damaged DNA; also recorded: the most part DNA shifted into lower molecular mass

Q: What about the interferon production [10] of the same compound?
A: induced interferon production in vitro in explanted mouse peritoneal leukocytes and other cells

Q: What about the “effect of dipyridamole pretreatment on proliferation” value [11] of the same compound?
A: more effective than a simultaneous administration of the two agents

Q: What about the “levels of antiviral activity in culture medium” value [12] of the same compound?
A: no detectable levels of antiviral activity

Q: What about the “most effective concentration for the synergistic enhancement of HuIFN action” value [13] of the same compound?
A: less than 0.1 μM

Q: And the “inhibition of tumor growth” value [14]?
A: more noticeably inhibited

Q: What about the “dose that enhances the interferon effect in vitro” value [15] of the same compound?
A: less than 1 μM

Q: What about the metastatic effect [16] of the same compound?
A: potential metastatic effect

Q: What about the DNA damage [17] of the same compound?
A: does not damage DNA

Q: And the “antitumor activity of MTX” value [18]?
A: not dramatically improved

Q: What about the “interferon induction in mice” value [19] of the same compound?
A: induced interferon in mice after I.V. administration

Q: What about the “inhibitory effect on cell proliferation” value ([20]; dipyridamole alone (FIG. 14)) of the same compound?
A: little inhibitory effect on cell proliferation

Q: And the “enhancement of cell proliferation inhibition induced by interferon” value ([20]; with interferon β 100-1000 IU/ml, 6 days (FIG. 14))?
A: can enhance cell proliferation inhibition induced by interferon
